In the assay the test system is peripheral blood mononuclear cells (PBMCs). As to the kind of experiment: XF substrate oxidation stress test (Seahorse XFp, oxygen consumption rate). Conditions: for basal respiration after blocking / maximal respiration after blocking: PBMCs of patients with COVID-19, BPTES 3 μM, etomoxir 4 μM, UK5099 2 μM. The format is cell-based, human. Here is the method:
Blood samples were obtained from the study participants. PBMCs were separated and plated on XFp eight-well polystyrene plates designed for the Seahorse XFp analyzer (Agilent Technologies, Santa Clara, Calif.) within 2 h. The Seahorse XFp analyzer (Agilent Technologies) was used to measure basal, ATP-linked, and maximal oxygen consumption rate (OCR); reserve capacity; and extracellular acidification rate (ECAR).
OCR, a measurement of mitochondrial respiration, and ECAR, which correlates to the number of protons released from the cell with potential contribution from glycolysis and the Krebs cycle, were measured in the presence of specific mitochondrial activators and inhibitors. Oligomycin (ATP synthase blocker) was used to measure ATP turnover and to determine proton leak; the mitochondrial uncoupler carbonyl cyanide 4-[trifluoromethoxy] phenylhydrazone (FCCP) was used to measure maximum respiratory function (maximal OCR).
Reserve capacity was calculated as maximal OCR minus the basal respiration.
For a measurement of basal respiration, three measurements were taken before injecting ATP synthase inhibitor oligomycin at 0.75 μM (final concentration). FCCP was then injected at 0.75 μM. Finally, a mixture of rotenone and antimycin A (1 μM) was injected. Mitochondrial basal respiration, proton leak, reserve capacity, and maximal respiration were measured after correcting for nonmitochondrial respiration.
OCR and ECAR rates were normalized to cell count for PBMCs.

Experimental findings from US20230149493A1, “COMPOSITIONS AND METHODS FOR TREATING COVID-19 AND SYMPTOMS THEREOF” (YUVA BIOSCIENCES, INC., priority 2021, published 2023) are described below.

SMILES strings stand for the structures.

As for `CCOC(=O)[C@@]1(CCCCCCOc2ccc(Cl)cc2)CO1` [etomoxir], the “basal respiration after blocking” value was 128±2 and the “maximal respiration after blocking” value was determined as 255±16.
Turning to `N#C/C(=C\c1cn(-c2ccccc2)c2ccccc12)C(=O)O` [UK5099], the “basal respiration after blocking” value was 128±5 and the “maximal respiration after blocking” value is 254±24. Further, the “maximal respiration after blocking the glucose pathway” value (PBMCs of healthy controls (HC), before blocking=37±25) was 34±5. Where the note is “PBMCs of healthy controls (HC), before blocking=80±33”, the “basal respiration after blocking the glucose pathway” value was found to be 52±28. Besides, the “basal respiration after blocking the glucose pathway” value (PBMCs of patients with chest infection, before blocking=200±35) worked out at 195±33. The “maximal respiration after blocking the glucose pathway” value (PBMCs of patients with chest infection, before blocking=589±16) is on record as 558±19.
